We go through 2 compounds from patent publication US7759459B2, “Fluorescent assays for protein kinases” (Albert Einstein College of Medicine of Yeshiva University, priority 2003, dated 2010).

For assay [1], the target named is T1, PKCα (Homo sapiens, UniProt P17252). Briefly: Radioactive PKC assay ([γ-32P]ATP). The note with it: Table 2. In kind it is biochemical. How it is done:
Radioactive PKC Assay—Radioactive assays were performed in duplicate at 30° C. The final assay volume totaled 40 μl and contained 62.5 mM HEPES (pH 7.4), 0.75 mM CaCl2, 12.5 mM MgCl2, 1 mM dithiothreitol, 0.5 mM EGTA, 7.5 μg/mL phosphatidylserine, 1.6 μg/mL diacylglycerol, and 10 ng of PKC. […] Phosphorylation reactions were initiated by the addition of 10 μL of PKC from a stock solution (20 mM Tris-HCl at pH 7.5, 1 mM dithiothreitol, 1 mM EDTA, and 0.75 mg/mL bovine serum albumin) into 30 μL of assay buffer containing peptide substrate. Reactions were terminated after 5 min by spotting 25 μL aliquots onto phosphocellulose paper disks (2.1 cm in diameter). After 10 s, the disks were immersed in 10% glacial acetic acid and soaked with occasional stirring for at least 1 h. The acetic acid was decanted and the disks were collectively washed with four volumes of 0.5% H3PO4, 1 volume of water, followed by a final acetone rinse. The disks were air dried and then counted in a Beckman LS scintillation counter.

The target of assay [2] is T1, PKCα. Briefly: Fluorescent PKC assay (spectrofluorimetry). In kind it is biochemical. The conditions noted are these: PKC/ATP; fluorescence assay. How it is done: Fluorescent PKC assay-Fluorescence assays were performed in triplicate at 30° C. and initiated by addition of ATP to a 100 μL cuvette containing a 50 μL solution of PKC and peptide substrate 2. Final conditions: 62.5 mM HEPES pH 7.4, 3 mM MgCl2, 0.3 mM CaCl2, 0.1 mM EGTA, 1 mM DTT, 0.5 μg/mL phosphatidylserine, 0.1 μg/mL diacylglycerol, 1 mM ATP, and 13 nM PKC. After the addition of ATP, the solution was gently mixed and the time-dependent change in fluorescent intensity (excitation: 520 nm, emission: […]) continuously monitored with a Photon Technology QM-1 spectrofluorimeter.

A further assay has as its system PKC in HeLa cells. Briefly: Microinjection studies in TPA-stimulated living HeLa cells. In kind it is cell-based. The note with it: co-injected with peptide 2; 20 μM estimated intracellular concentration. The procedure: Microinjection Studies-Subconfluent, serum-starved (24 hr), HeLa cells were cultured on 22 mm coverslips in DMEM in a humidified atmosphere containing 5% CO2. […] Microinjections were performed with an Eppendorf (Brinkman Instruments, Westbury, N.Y.) 5246 microinjection apparatus mounted on the microscope inside the environmental chamber. The peptide was estimated to be diluted 10-fold upon microinjection, using the equation for volume (V) flow through a capillary tube:
[formula] where p is the difference in pressure at the ends of the tube (290 hPa), r the radius (0.05 μm) and l the length (10 μm) of the tube, η the viscosity of the injected solution (0.69×10^−2 g/cm-sec), and t the total injection time (0.3 sec). The average volume of a fibroblast was taken as 2 pL.^18 12-O-tetradecanoyl phorbol-13-acetate (TPA) (1 μM) was added to the media following microinjection to stimulate PKC activity. […] Fluorescence intensity measurements were corrected using values from a standard photobleaching curve generated from control experiments with microinjected HeLa cells that had not been treated with TPA. […]

The next assay has as its target PKC. The note with it: cited from earlier work.

As usually defined, the Km is the concentration of substrate that gives half-maximal velocity. Broadly, the kcat is the maximal rate divided by the concentration of active sites. For “H2N-Ser-Phe-Arg4-Lys(NBD)-amide [peptide 3]”, at PKCα [1], the Km was 19 ± 1 µM and the kcat is 3.5 ± 0.167 s⁻¹. On PKCα [2], the “fluorescence intensity change following phosphorylation (in words)” value was “No Fluorescence Intensity Change”.
On to `CN(C)CCCn1cc(C2=C(c3c[nH]c4ccccc34)C(=O)NC2=O)c2ccccc21` [GF 109203X], for which the “effect of inhibitor on TPA-induced enhancement in cellular fluorescence” value in the assay on PKC in HeLa cells is on record as “effectively blocks the TPA-induced enhancement in cellular fluorescence”. Also, the Ki entry at PKC was “low nanomolar range”.
